Like-named read-outs stand apart in the source and are kept apart here.
Experiments:
CB1 receptor [1] = biological target: T1, CB1 receptor (Rattus norvegicus, UniProt P20272); assay: CB1 receptor binding affinity (Ki)
Description: (§1) Some disclosed compounds were tested for CB1 and CB2 receptor binding affinity (Tables 1, 2, 3, 4, 5). As used herein “binding affinity” is represented by the Ki value. The Ki value is the affinity constant and describes the affinity of the compound for the receptor. […] A detailed description of the methods used to test “binding affinity” of compounds is given in Makriyannis, et al., US 2007/0135388 the content of which is hereby incorporated by reference.

CB1 receptor (rCB1) = CB1 receptor (rCB1) (Rattus norvegicus, UniProt P20272); assay: cAMP assay (inhibition of FSK stimulated cAMP), CB1; assay type: cell-based
Sequence of CB1 receptor (rCB1) (P20272 whole entry): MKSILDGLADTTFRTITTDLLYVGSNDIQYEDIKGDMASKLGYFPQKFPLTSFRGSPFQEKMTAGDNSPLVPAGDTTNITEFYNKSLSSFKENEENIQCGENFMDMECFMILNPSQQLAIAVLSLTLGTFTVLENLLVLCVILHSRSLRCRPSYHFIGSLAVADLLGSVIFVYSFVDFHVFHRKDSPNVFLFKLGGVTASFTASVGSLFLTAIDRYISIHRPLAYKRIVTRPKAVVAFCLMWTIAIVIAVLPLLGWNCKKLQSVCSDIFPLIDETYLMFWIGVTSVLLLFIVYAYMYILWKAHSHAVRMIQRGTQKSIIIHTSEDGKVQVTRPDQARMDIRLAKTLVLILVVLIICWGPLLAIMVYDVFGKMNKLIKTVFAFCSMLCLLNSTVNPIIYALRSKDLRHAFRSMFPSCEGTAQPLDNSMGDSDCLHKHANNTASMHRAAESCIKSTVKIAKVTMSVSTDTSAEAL
Description: Further functional characterization of some of the disclosed compounds tested initially for “binding affinity” or for GTPγ-S binding was performed by using the cyclic adenosine monophosphate (cAMP) assay. […] A detailed description of the methods used to test compounds using the cAMP assay is given in Yingpeng, et al. J. Med. Chem. (2018) 61, 8639-8657 the content of which is hereby incorporated by reference. The EC50 values (potency of a test compound) of the functional assays may or may not be accompanied by the E(max) value in tables 1-5 (efficacy of the test compound). E(max)/efficacy is the maximum GTP stimulation or cAMP inhibition levels and is presented as the percentage of maximum response evoked by a standard CB1/CB2 full agonist (e.g., CP-55,940) for reference see the paper cited above.

CB2 receptor [2] = biological target: T2, CB2 receptor (Homo sapiens, UniProt P34972); assay: CB2 receptor binding affinity (Ki); parameters: CB2 receptor Ki; CB2 receptor Ki (PMSF); other: with PMSF; settings: read-out: CB2 receptor Ki
T2 sequence (P34972 whole entry): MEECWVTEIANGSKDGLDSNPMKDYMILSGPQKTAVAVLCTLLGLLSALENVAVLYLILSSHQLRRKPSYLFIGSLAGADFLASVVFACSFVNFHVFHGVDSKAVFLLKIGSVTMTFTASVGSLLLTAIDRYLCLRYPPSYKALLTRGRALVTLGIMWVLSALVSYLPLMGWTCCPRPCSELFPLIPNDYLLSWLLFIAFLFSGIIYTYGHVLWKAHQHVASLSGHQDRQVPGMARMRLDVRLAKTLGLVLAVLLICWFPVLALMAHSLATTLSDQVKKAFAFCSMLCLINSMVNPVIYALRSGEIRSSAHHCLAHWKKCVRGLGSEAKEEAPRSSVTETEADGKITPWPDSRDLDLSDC
Description: as §1

CB2 receptor (hCB2) = CB2 receptor (hCB2) (Homo sapiens, UniProt P34972); assay: cAMP assay (inhibition of FSK stimulated cAMP), CB2; assay type: cell-based
Sequence of CB2 receptor (hCB2) (P34972 whole entry): as above
Description: FIG. 2A is a graph providing data of the % inhibition of FSK stimulated cAMP for compound 6.1.1 for hCB2.
Further functional characterization of some of the disclosed compounds tested initially for “binding affinity” or for GTPγ-S binding was performed by using the cyclic adenosine monophosphate (cAMP) assay. Key compounds initially characterized functionally using the GTPγ-S assay were also doubly tested using the cAMP assay to unambiguously confirm their functional profiles. The functional potency of the compounds tested using the cyclase assay is also represented by the EC50 (cAMP) value and similarly the lower the EC50 (cAMP) value the higher the potency of the compound for the receptor. A detailed description of the methods used to test compounds using the cAMP assay is given in Yingpeng, et al. J. Med. Chem. (2018) 61, 8639-8657 the content of which is hereby incorporated by reference. The EC50 values (potency of a test compound) of the functional assays may or may not be accompanied by the E(max) value in tables 1-5 (efficacy of the test compound). E(max)/efficacy is the maximum GTP stimulation or cAMP inhibition levels and is presented as the percentage of maximum response evoked by a standard CB1/CB2 full agonist (e.g., CP-55,940) for reference see the paper cited above. If a test compound has an efficacy close to 100% of the standard full agonist, then the test compound is also classified as full agonist.

CB1 receptor [3] = biological target: T1, CB1 receptor; assay: GTPγ-S binding assay, CB1; assay type: biochemical; settings: class symbols; read-out: EC50 (GTP) CB1 receptor
Description: The activity of some of the disclosed compounds for the CB1 and CB2 receptors was assessed by using the GTPγ-S binding assay (Tables 2,3,4). As used herein the “effect” of the compound on the GTPγ-S assay is represented by the EC50 (GTP) value. […] Med. Chem. Letters 2006, 16(9), 2437 and Griffin, et al., J. Pharmacol. Exp. Ther. 1998, 285(2), 553-560 the content of which is hereby incorporated by reference.

CB2 receptor [4] = biological target: T2, CB2 receptor; assay: CB2 receptor binding affinity (Ki); parameters: CB2 receptor Ki
Description: as §1

CB2 receptor [5] = biological target: T2, CB2 receptor; assay: GTPγ-S binding assay, CB2; assay type: biochemical
Description: The activity of some of the disclosed compounds for the CB1 and CB2 receptors was assessed by using the GTPγ-S binding assay (Tables 2,3,4). As used herein the “effect” of the compound on the GTPγ-S assay is represented by the EC50 (GTP) value. The lower the EC50 (GTP) value the higher the potency of the compound for the receptor A detailed description of the methods used to test compounds using the GTPγ-S assay is given in Parkkari, et al., Biorg. Med. Chem. Letters 2006, 16(9), 2437 and Griffin, et al., J. Pharmacol. Exp. Ther. 1998, 285(2), 553-560 the content of which is hereby incorporated by reference.

CB2 receptor [6] = biological target: T2, CB2 receptor; assay: hCB2 receptor binding affinity (Ki), Table 7
Description: Some disclosed compounds were tested for CB1 and CB2 receptor binding affinity (Tables 1, 2, 3, 4, 5). As used herein “binding affinity” is represented by the Ki value. The Ki value is the affinity constant and describes the affinity of the compound for the receptor. The lower the Ki value, the higher the affinity of the compound for the receptor. A detailed description of the methods used to test “binding affinity” of compounds is given in Makriyannis, et al., US 2007/0135388 the content of which is hereby incorporated by reference.

[7] = with PMSF, read-out: CB1 Receptor Ki with PMSF
[8] = without PMSF, read-out: CB1 receptor affinity Ki
[9] = percentage of maximum response of standard full agonist (e.g., CP-55,940)

T1 sequence (P20272 whole entry): as the sequence (P20272 whole entry) above

C[C@H](/C=C\C/C=C\C/C=C\CCCC(=O)N[C@H](C)CO)/C=C\CCCCCC#N [Compound 4.1.5a, (S,5Z,8Z,11Z,14Z)-20-Cyano-N—((R)-1-hydroxypropan-2-yl)-13-methylicosa-5,8,11,14-tetraenamide]
Ki (CB1 receptor [1]; [7]): 0.01 to 10 nM | Ki (CB1 receptor [1]; [8]): 0.01 to 10 nM | functional profile at CB1 (cAMP) (CB1 receptor (rCB1); full or partial agonist): partial agonist | EC50 (CB1 receptor (rCB1); numeric): 8.7 nM | Emax (CB1 receptor (rCB1); [9]): 76% | Ki (CB2 receptor [2]): 0.01 to 10 nM

CCCCC/C=C\C/C=C\C/C=C\C/C=C\C1CC[C@@H](C(=O)OC(CO)CO)C1 (some centres unmarked) [Compound 5.2.2e]
EC50 (CB2 receptor (hCB2); class symbols): 200 to 1000 nM | EC50 (CB1 receptor [3]): > 1000 nM

CCCCC/C=C\[C@H](C)/C=C\C/C=C\C/C=C\CCCCNC(=O)COC [Compound 6.1.1, 2-Methoxy-N—((S,5Z,8Z,11Z,14Z)-13-methylicosa-5,8,11,14-tetraen-1-yl)acetamide]
Ki (CB2 receptor [4]): 0.01 to 10 nM | Ki (CB1 receptor [1]; [8]): 0.01 to 10 nM | functional profile at CB2 (cAMP) (CB2 receptor (hCB2); full or partial agonist): partial agonist | EC50 (CB2 receptor (hCB2); numeric): 1.2 nM | Emax (CB2 receptor (hCB2); [9]): 40%

CCCCC/C=C\C/C=C\C/C=C\C/C=C\COC(C)C(=O)OC(CO)CO (centres unmarked) [Compound 5.3.3, 1,3-Dihydroxypropan-2-yl 2-(((2Z,5Z,8Z,11Z)-heptadeca-2,5,8,11-tetraen-1-yl)oxy)propanoate]
EC50 (CB1 receptor [3]): > 1000 nM

CCCCC/C=C\C/C=C\C/C=C\[C@H](C)/C=C\CCCC(=O)OC(CO)CO [Compound 5.4.3a, 1,3-Dihydroxypropan-2-yl (R,5Z,8Z,11Z,14Z)-7-methylicosa-5,8,11,14-tetraenoate]
EC50 (CB2 receptor [5]): 200 to 1000 nM | EC50 (CB1 receptor [3]): > 1000 nM

CCCCC/C=C\C/C=C\C/C=C\C/C=C\CCCC(=O)OC(CO)CO [Compound 2-AG, 2-arachidonoylglycerol, reference compound]
EC50 (CB2 receptor [5]; class symbols, read-out: EC50 (GTP) CB2 receptor): 200 to 1000 nM | EC50 (CB2 receptor (hCB2); class symbols): 10 to 200 nM

CCCCC/C=C\C/C=C\C/C=C\[C@@H](C)/C=C\CCCC(=O)OC(CO)CO [Compound 5.4.3b, 1,3-Dihydroxypropan-2-yl (S,5Z,8Z,11Z,14Z)-7-methylicosa-5,8,11,14-tetraenoate]
EC50 (CB2 receptor [5]): > 1000 nM | EC50 (CB1 receptor [3]): > 1000 nM

C[C@H](/C=C\C/C=C\C/C=C\CCCC(=O)N[C@H](C)CO)/C=C\CCCCC(F)(F)F [Compound 4.1.5c]
Ki (CB2 receptor [6]): 3.6 nM | fold higher binding affinity for CB2 compared to AM 356 (CB2 receptor [6]; vs AM 356): 61 fold | fold higher binding affinity for CB2 compared to AMG 315 (CB2 receptor [6]; vs AMG 315): 49 fold

C[C@H](/C=C\C/C=C\C/C=C\CCCC(=O)N[C@H](C)CO)/C=C\CCCCCBr [Compound 4.1.4, (S,5Z,8Z,11Z,14Z)-20-Bromo-N—((R)-1-hydroxypropan-2-yl)-13-methylicosa-5,8,11,14-tetraenamide]
Ki (CB1 receptor [1]; [7]): 0.01 to 10 nM | Ki (CB1 receptor [1]; [8]): 0.01 to 10 nM | Ki (CB2 receptor [2]): 0.01 to 10 nM

CCCCC/C=C\C/C=C\C/C=C\Cc1ccccc1CCCC(=O)N[C@H](C)CO [Compound 4.3.5, N—((R)-1-Hydroxypropan-2-yl)-4-(2-((2Z,5Z,8Z)-tetradeca-2,5,8-trien-1-yl)phenyl)butanamide]
CB1 over CB2 preference (CB1 receptor [1]; CB1 vs CB2, Tables 1 and 5): bind to and stimulate preferentially the CB1 receptors | binding affinity for CB1 receptor compared to endogenous AEA (CB1 receptor [1]; vs AEA, Table 5): substantially higher binding affinities | Ki (CB1 receptor [1]; [7]): 10 to 200 nM | Ki (CB1 receptor [1]; [8]): 0.01 to 10 nM | Ki (CB2 receptor [2]): 10 to 200 nM

CCCCC/C=C\C/C=C\C/C=C\C/C=C\C1CC1C(=O)NCCO (centres unmarked) [Compound 4.2.2a, 2-((1Z,4Z,7Z,10Z)-Hexadeca-1,4,7,10-tetraen-1-yl)-N-(2-hydroxyethyl)cyclopropane-1-carboxamide]
Ki (CB1 receptor [1]; [8]): > 1000 nM | Ki (CB2 receptor [2]): > 1000 nM

CCCCC/C=C\C/C=C\C/C=C\C/C=C\C1CCC(C(=O)NCCO)CC1 (centres unmarked) [Compound 4.2.2f]
Ki (CB1 receptor [1]; [7]): 200 to 1000 nM | Ki (CB2 receptor [2]): 200 to 1000 nM

— US20260234099A1, “Endocannabinoid ligands and related analogs” (Northeastern University, priority 2023, published 2026)
